In patent US9539301B2, “Melanotropin ligands for skin care” (THE ARIZONA BOARD OF REGENTS ON BEHALF OF THE UNIVERSITY OF …, priority 2011, dated 2017):
Square brackets hold non-standard residues; d marks the D form. Peptide text beside a SMILES is read from it. * marks the point of attachment. d2Nal = N[C@H](Cc1ccc2ccccc2c1)C(=O)O; Butanoyl(4-Ph) = O=C(CCCc1ccccc1)*; Butanoyl(4-ethynyl) = C#CCCCC(=O)*; Nle = CCCC[C@H](N)C(=O)O

Molecular target: MC1R (Homo sapiens, UniProt Q01726)
Assay: Europium time-resolved fluorescence competitive binding assay (Eu-NDP-α-MSH) on HCT116/hMC1R cells
Set-up: host or cells: HCT116
Settings: for 1R/4R selectivity (values determined): ratio of MC4R Ki to MC1R Ki
Procedure: HCT116 cells overexpressing hMC1R and HEK293 cells overexpressing hMC4R[23] or hMC5R were used in all studies. […] Cells were maintained under standard conditions (37° C. and 5% CO2) and were grown in Dulbecco's modified Eagle medium (DMEM) supplemented with 10% FBS and 5% penicillin/streptomycin. For HCT116/hMC1R cells, geneticin (G418S, 0.4 mg/mL) was added to the media to ensure proper selection.
Competitive binding assays were performed using HCT116/hMC1R cells and HEK293/hMC4R or hMC5R as previously described, with slight modifications. […] Poly-D-Lysine Coated Plates contain a PDL polymer coating that creates a uniform positive charge at the surface of the plastic, thereby facilitating cell attachment, growth and differentiation. […] Both labeled and non-labeled ligands were diluted in binding media (DMEM, 1 mM 1,10-phenanthroline, 200 mg/L bacitracin, 0.5 mg/L leupeptin, 0.3% BSA). In the case of the triblock polymer micelle solutions, micelles were allowed to equilibrate in solution for a period of 30 min prior to cell addition. Cells were incubated with labeled and non-labeled ligands for 1 hour at 37° C. Following incubation, cells were washed three times with wash buffer (50 mM Tris-HCl, 0.2% BSA, 30 mM NaCl) and 50 µL of enhancement solution (PerkinElmer) was added to each well. Cells were incubated for an additional 30 min at 37° C. prior to reading. […] Competition curves were analyzed with GraphPad Prism software using the sigmoidal dose-response (variable slope) classical equation for nonlinear regression analysis.
Competitive binding assays were also performed using 4-targeted triblock polymers, triblock polymer micelles, as well as untargeted micelles as a control (FIG. 4A-C).
Europium binding assays were conducted as previously published.^33, 40
Time-resolved lanthanide fluorescence competitive binding assays^33, 40 were performed in an effort to optimize ligand loading for maximal avidity. In these assays, increasing concentrations of micelles were measured for their ability to competitively displace Eu-labeled NDP-α-MSH 2. The remaining Eu was then measured using time resolved fluorescence (TRF, see Methods).

MC1R, sequence (Q01726 whole entry): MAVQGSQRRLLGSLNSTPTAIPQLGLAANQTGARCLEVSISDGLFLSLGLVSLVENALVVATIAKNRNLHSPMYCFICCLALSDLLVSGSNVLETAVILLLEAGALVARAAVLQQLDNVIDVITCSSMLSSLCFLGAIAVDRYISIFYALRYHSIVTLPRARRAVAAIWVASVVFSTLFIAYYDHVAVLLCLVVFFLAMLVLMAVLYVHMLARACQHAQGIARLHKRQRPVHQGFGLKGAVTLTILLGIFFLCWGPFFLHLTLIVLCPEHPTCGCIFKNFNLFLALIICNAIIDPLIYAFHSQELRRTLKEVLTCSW

| Ki (HCT116/hMC1R cells, competition with Eu-NDP-α-MSH, read-out: Ki MC1R (values determined)) | 1R/4R selectivity (values determined) | 1R/5R selectivity (values determined) (ratio of MC5R Ki to MC1R Ki) | Structure (SMILES) |
| --- | --- | --- | --- |
| 1.77 nM | – | – | CC(=O)N[C@@H](CCc1ccccc1)C(=O)N[C@@H](Cc1cnc[nH]1)C(=O)N[C@H](Cc1ccccc1)C(=O)N[C@@H](CCCN=C(N)N)C(=O)N[C@@H](Cc1c[nH]c2ccccc12)C(N)=O [Compound 2, Ac-Homophenylalanine-His-DPhe-Arg-Trp-NH2] |
| – | 1.05 | – | C#CCCCC(=O)NCCCC[C@H](N)C(=O)N[C@@H](Cc1ccc(O)cc1)C(=O)N[C@H](C(=O)N[C@@H](CCCC)C(=O)NCC(=O)N[C@@H](Cc1c[nH]cn1)C(=O)N[C@H](Cc1ccc2ccccc2c1)C(=O)N[C@@H](CCCNC(=N)N)C(=O)N[C@H](Cc1ccccc1)C(=O)N[C@@H](CC(=O)O)C(=O)N[C@@H](CCCNC(=N)N)C(=O)N[C@@H](Cc1ccccc1)C(=O)NCC(N)=O)C(C)C [Compound 8, H-Lys(hex-5-ynoyl)Tyr-Val-Nle-Gly-His-DNal(2′)-Arg-DPhe-Asp-Arg-Phe-Gly-NH2] (H-K(Butanoyl(4-ethynyl))YV[Nle]GH[d2Nal]R[dF]DRFG-NH2) |
| – | 1000 | 200 | C#CCCCC(=O)NCCCC[C@H](NC(=O)CNC(=O)[C@H](Cc1c[nH]c2ccccc12)NC(=O)[C@H](CCCNC(=N)N)NC(=O)[C@@H](Cc1ccccc1)NC(=O)[C@H](Cc1c[nH]cn1)NC(=O)CCCc1ccccc1)C(N)=O [Compound 4, 4-phenylbutyry1-His-DPhe-Arg-Trp-Gly-Lys(hex-5-ynoyl)-NH2] ({Butanoyl(4-Ph)}-H[dF]RWGK(Butanoyl(4-ethynyl))-NH2) |
